Assay [1] relates to ubiquinone-deficient enzyme preparation from beef heart mitochondria (succinate oxidase). Kind of assay: Electron transport activity (succinate oxidase activity of ubiquinone-deficient enzyme preparation). In kind it is biochemical. The conditions noted are these: level of addition 5 n mole; control 7.1 ± 2.8. On the procedure: Thus, the compound of this invention was added to a ubiquinone-deficient enzyme preparation made from beef heart mitochondria and the electron transport activity was investigated by assaying the succinate oxidase activity.
*The ubiquinonedeficient enzyme preparation was prepared from beef heart
mitochondria in accordance with the method of Lester and Fleischer
(Biochem. Biophys. Acta, 47, 358, 1961). The electron transport activity
was investigated by assaying the succinate oxidase activity.
**The composition of the reaction system (2 ml) was as follows. 0.2 M
sucrose, 10 mM TrisHCl (pH 7.4), 20 mM KCl, 3 mM MgCl2, […]
2Na, enzyme protein 1.99 mg, 50 μM potassium succinate, cytochrome C
0.2 mg. 1% Nikkol OP10 (produced by Nikko Chemicals Co. Ltd.) 5 μl
(control group) or 5 μl of a 1 mM solution of the test compound in 1%
Nikkol OP10. The oxygen consumption of this solution was measured with an
oxygen electrode device (Gilson Medical Electronics' Inc.).

The test system of assay [2] is rats with spontaneous hypertension (Ta:SHR). Kind of assay: Blood pressure of Ta:SHR, oral gavage. In kind it is in vivo, rat. The conditions noted are these: 10 mg/kg/day oral gavage, mean ± standard error. On the procedure:
(§1) Thus, 21-week rats with spontaneous hypertension (Ta:SHR) were organized into groups of 8 to 10 individuals each, and one of the present compounds, i.e. 6-(6-hydroxy-3-methyl-3-hexenyl)-2,3-dimethoxy-5-methyl-1,4-benzoquinone (formula (I) wherein R:H3 CO, n:O, R2 :H, R1 :(CH2)3 OH, α β:double bond), and, as controls, ubiquinone homologs (ubiquinone-7 and ubiquinone-10) were each administered by oral gavage in doses of 10 mg/kg/day for 2 weeks (except on Sunday) or administered as incorporated in feed at the rate of 6 to 16 mg/kg/day for 4 weeks. Blood pressures were measured every week, and as for the oral gavage administration group, the blood was withdrawn from the abdominal aorta at the end of the administration period while each animal was kept under anesthesia with pentobarbital sodium (30 mg/kg, intraperitoneal). Then, the kidneys, liver, heart and adrenals were enucleated and weighed. At two weeks in the case of the oral gavage administration group (Table 3) or during week-1 through week-4 in the case of the feed incorporation group (Table 4), antihypertensive effects were observed. […] Since it is generally acknowledged that, in the case of ubiquinone homologs, such hypotensive effects are attributable to a depression of the ubiquinone (Q) deficiency in mitochondria, the degree of Q deficiency of heart mitochondria was investigated in 6 cases showing blood pressures over 230 mmHg in the control group and 6 cases showing blood pressures under 212 mmHg in the group dosed with the present compound.

For assay [3] the test system is unchanged. Kind of assay: Blood pressure of Ta:SHR, incorporated in feed. Type of assay: in vivo, rat. The conditions noted are these: 6-16 mg/kg/day in feed, mean ± standard error. Here is the method:
as §1

The test system of assay [4] is Rat liver lysosome. Kind of assay: Lysosomal membrane stabilizing activity (release of β-glucuronidase and acid phosphatase). Type of assay: biochemical. The conditions noted are these: 37° C., 90 minutes. Here is the method: (1) Rat liver lysosome was incubated at 37° C. for 90 minutes and the activities of β-glucuronidase and acid phosphatase released from the lysosome due to instabilization of the membrane during that time were assayed and compared with the results obtained in the absence of the test compound. The test compound was added as dissolved in dimethylformamide.

Assay [5] deals with beef heart muscle phosphodiesterase. Kind of assay: Phosphodiesterase inhibitory activity. In kind it is biochemical. Conditions: 1 mM. The source says:
Since lysosomal membrane-stabilizing activity is developed through adenosine-[…]-cyclic monophosphate (c-AMP) of tissue cells, the action of compound (I) on c-AMP phosphodiesterase, the c-AMP decomposing enzyme, was investigated. […] Therefore, it was confirmed, if only from this fact, that the compound according to this invention has a membrane-stabilizing activity.
(2) The rate of decomposition of adenosine-[…]-cyclic phosphate by beef heart muscle phosphodiesterase was compared with the rate found in the absence of the test compound.

For assay [6], the system named is isolated guinea pig trachea. Kind of assay: Tracheal muscle relaxant activity. The conditions noted are these: Cavia porcellus, relaxant effect of noradrenaline taken as 100, read-out: Tracheal muscle relaxant action; for Emax at 30 µg/mL: 3 × 10^-5 g/ml; for Emax at 100 µg/mL: 10^-4 g/ml. On the procedure:
Thus, the isolated guinea pig trachea was cut into a strip in accordance with the method of Kiyomoto et al. [Yamaura Y. ed. "Zensoku (Asthma)", Kodansha, Tokyo, p. 152, 1974 (Japanese language)], set up in a Magnus device and kept at constant contraction with potassium chloride solution five times the concentration of Tyrode solution. Under the above conditions, a solution of the drug in DMF was added and the muscle relaxant effect was recorded on a kymograph.
^(1) With the relaxant effect of noradrenaline being taken as 100.

Consider `COC1=C(OC)C(=O)C(C/C=C(\C)CC/C=C(\C)CC/C=C(\C)CO)=C(C)C1=O`, for which the “Succinate oxidase activity [oxygen consumption]” value (“Succinate oxidase activity” for short) in assay [1] is recorded as 42.4 ± 6.3 (n atoms oxygen) min. per mg p.
In the case of `COC1=C(OC)C(=O)C(C/C=C(\C)CC/C=C(\C)CO)=C(C)C1=O`, the “Succinate oxidase activity” value in assay [1] is 35.5 ± 3.5 (n atoms oxygen) min. per mg p.
The same measure, in the same setting: the result for `COC1=C(OC)C(=O)C(CC=C(C)CCCC(C)(C)O)=C(C)C1=O` reads 21.4 (n atoms oxygen) min. per mg p.
Regarding `COC1=C(OC)C(=O)C(C/C=C(\C)CC/C=C(\C)CC/C=C(\C)CC/C=C(\C)CC/C=C(\C)CC/C=C(\C)CCC=C(C)C)=C(C)C1=O` [Ubiquinone-7, ubiquinone-7, reference compound], the Blood pressure is on record as 199 ± 9 mmHg in assay [2] (week 0), 204 ± 9 mmHg in assay [2] (week 1) and 206 ± 11 mmHg in assay [2] (week 2).
On to `COC1=C(OC)C(=O)C(C/C=C(\C)CC/C=C(\C)CC/C=C(\C)CC/C=C(\C)CC/C=C(\C)CC/C=C(\C)CC/C=C(\C)CC/C=C(\C)CC/C=C(\C)CCC=C(C)C)=C(C)C1=O` [Ubiquinone-10, ubiquinone-10], for which the Blood pressure was 206 ± 16 mmHg in assay [3] (week 0); 191 ± 14 mmHg in assay [3] (week 1); 187 ± 10 mmHg in assay [3] (week 2); 199 ± 17 mmHg in assay [3] (week 3); 205 ± 13 mmHg in assay [3] (week 4).
Take `COC1=C(OC)C(=O)C(CC(O)C(C)C(=O)O)=C(C)C1=O` (centres unmarked) [drawing 11 R#1]: in assay [4] (2 × 10^-4 M), the “% Inhibition on release of acid phosphatase” value is listed as 49% and the “% Inhibition on release of β-Glucuronidase” value was 18%. Also, in assay [5], the “Action on phosphodiesterase % Inhibition” value stood at 60%.
On to `CC1=C(C)C(=O)C(CC(O)C(C)C(=O)O)=C(C)C1=O` (centres unmarked) [drawing 11 R#2], for which, in assay [4] (2 × 10^-4 M), the “% Inhibition on release of acid phosphatase” value was 48% and the “% Inhibition on release of β-Glucuronidase” value came out at 29%. The “Action on phosphodiesterase % Inhibition” value in assay [5] came out at 20%.
On to `CC1=C(CC(O)C(C)C(=O)O)C(=O)c2ccccc2C1=O` (centres unmarked) [drawing 11 R#3], for which, in assay [4] (2 × 10^-4 M), the “% Inhibition on release of acid phosphatase” value is listed as 35% and the “% Inhibition on release of β-Glucuronidase” value is 15%. For the same compound, the “Action on phosphodiesterase % Inhibition” value in assay [5] is reported as 40%.
Take `COC1=C(OC)C(=O)C(C/C=C(\C)C(=O)O)=C(C)C1=O` [drawing 13 R#1]: in assay [4] (2 × 10^-4 M), the “% Inhibition on release of acid phosphatase” value was determined as 44% and the “% Inhibition on release of β-Glucuronidase” value is on record as 36%. Besides, the “Action on phosphodiesterase % Inhibition” value in assay [5] is 47%.
Turning to `CC1=C(C)C(=O)C(C/C=C(\C)C(=O)O)=C(C)C1=O` [drawing 13 R#2], in assay [4] (2 × 10^-4 M), the “% Inhibition on release of acid phosphatase” value is given as 40% and the “% Inhibition on release of β-Glucuronidase” value amounted to 36%. Moreover, the “Action on phosphodiesterase % Inhibition” value in assay [5] is 42%.
Regarding `CC1=C(C/C=C(\C)C(=O)O)C(=O)c2ccccc2C1=O` [drawing 13 R#3], the “Action on phosphodiesterase % Inhibition” value in assay [5] was 86%.
For `CC1=C(C)C(=O)C(C/C=C(\C)CO)=C(C)C1=O` [drawing 15 R#1], in assay [4] (2 × 10^-4 M), the “% Inhibition on release of acid phosphatase” value is recorded as 32% and the “% Inhibition on release of β-Glucuronidase” value is on record as 37%. The “Action on phosphodiesterase % Inhibition” value in assay [5] came to 41%.
In the case of `CC1=C(C/C=C(\C)CO)C(=O)c2ccccc2C1=O` [drawing 15 R#2], in assay [4] (2 × 10^-4 M), the “% Inhibition on release of acid phosphatase” value is recorded as 39% and the “% Inhibition on release of β-Glucuronidase” value is reported as 37%. For the same compound, in assay [5], the “Action on phosphodiesterase % Inhibition” value is reported as 55%.
Take `COC1=C(OC)C(=O)C(C/C=C(\C)CCCO)=C(C)C1=O` [drawing 17 R#1]: in assay [4] (2 × 10^-4 M), the “% Inhibition on release of acid phosphatase” value is reported as 37% and the “% Inhibition on release of β-Glucuronidase” value is 28%. In assay [5], the “Action on phosphodiesterase % Inhibition” value is listed as 84%.
`CC1=C(C)C(=O)C(C/C=C(\C)CCCO)=C(C)C1=O` [drawing 17 R#2]: in assay [4] (2 × 10^-5 M), the “% Inhibition on release of acid phosphatase” value is on record as 34% and the “% Inhibition on release of β-Glucuronidase” value was determined as 23%. In addition, in assay [5], the “Action on phosphodiesterase % Inhibition” value is listed as 53%.
For the compound `CC1=C(C/C=C(\C)CCCO)C(=O)c2ccccc2C1=O` [drawing 17 R#3], in assay [4] (2 × 10^-5 M), the “% Inhibition on release of acid phosphatase” value worked out at 36% and the “% Inhibition on release of β-Glucuronidase” value came out at 25%.
Turning to `COC1=C(OC)C(=O)C(CCC(C)CO)=C(C)C1=O` (centres unmarked) [drawing 19 R: H3 CO], in assay [4] (2 × 10^-4 M), the “% Inhibition on release of acid phosphatase” value came to 43% and the “% Inhibition on release of β-Glucuronidase” value was 38%. In addition, in assay [5], the “Action on phosphodiesterase % Inhibition” value is given as 38%.
As to `CC1=C(C)C(=O)C(CCC(C)CO)=C(C)C1=O` (centres unmarked) [drawing 19 R: H3 C], in assay [4] (2 × 10^-4 M), the “% Inhibition on release of acid phosphatase” value is 21% and the “% Inhibition on release of β-Glucuronidase” value was 29%. Besides, the “Action on phosphodiesterase % Inhibition” value in assay [5] is listed as 44%.
For `CC(=CCC1=C(C)C(=O)C(C)=C(C)C1=O)CCC=C(C)CCC(C)(C)O` [drawing 20 R#1], in assay [4] (2 × 10^-4 M), the “% Inhibition on release of acid phosphatase” value was found to be 16% and the “% Inhibition on release of β-Glucuronidase” value was 20%. Also, the “Action on phosphodiesterase % Inhibition” value in assay [5] is 18%.
As for `CC(=CCC1=C(C)C(=O)c2ccccc2C1=O)CCC=C(C)CCC(C)(C)O` [drawing 20 R#2], in assay [4] (2 × 10^-5 M), the “% Inhibition on release of acid phosphatase” value turned out to be 9% and the “% Inhibition on release of β-Glucuronidase” value is reported as 18%. In assay [5], the “Action on phosphodiesterase % Inhibition” value came out at 29%.
As to `COC1=C(OC)C(=O)C(C/C=C(\C)CCCO)=C(C)C1=O` [drawing 24], the “Succinate oxidase activity” value in assay [1] was 18.2 (n atoms oxygen) min. per mg p.
As for `COC1=C(OC)C(=O)C(CCC(C)CO)=C(C)C1=O` (centres unmarked) [drawing 25], the “Succinate oxidase activity” value in assay [1] is 12.5 (n atoms oxygen) min. per mg p.
As to `COC1=C(OC)C(=O)C(C/C=C(\C)CCCO)=C(C)C1=O` [drawing 28 R: H3 CO], in assay [6], the Emax at 30 µg/mL came out at 85.5% and the Emax at 100 µg/mL came out at 100%.
As for `CC1=C(C)C(=O)C(C/C=C(\C)CCCO)=C(C)C1=O` [drawing 28 R: H3 C], in assay [6], the Emax at 30 µg/mL stood at 67% and the Emax at 100 µg/mL was found to be 100%.
For the compound `Cn1c(=O)c2[nH]cnc2n(C)c1=O` [theophylline, reference compound], the “Action on phosphodiesterase % Inhibition” value in assay [5] worked out at 32%. Moreover, in assay [6], the Emax at 30 µg/mL is 60.4% and the Emax at 100 µg/mL came to 93%.

The values above are taken from patent US4818441A, “Quinine derivatines” (Takeda Chemical Industries, Ltd., priority 1979, dated 1989).
